{
  "source": "patent US7632814B2",
  "about": "“HYD1 peptides as anti-cancer agents” (University of South Florida, priority 2006, dated 2009)",
  "assay_type_in_all_cases": "cell-based",
  "key": {"8226 cells [1]": {"test_system": "8226 cells", "experiment": "Cell adhesion to fibronectin (crystal violet staining)", "conditions": "varying concentrations, 30 minutes pre-incubation, 2 hours adhesion", "method": "FIGS. 30A and 30B are graphs showing that HYD1 but not the scrambled derivative HYD1S inhibited cell adhesion of both 8226 and H929 cells to FN. Varying concentrations of either HYD1, HYD1S, or a 1:100 dilution of either α4β1 or α5β1 integrin functional blocking antibodies was added to either (FIG. 30A) 8226 cell or (FIG. 30B) H929 cells for 30 minutes prior to adding cells to either FN or BSA coated wells. Cells were allowed to adhere for 2 hours and adherent cells were measured by crystal violet staining at 540 nm. Shown is the mean and standard deviation of a representative experiment performed in quadruplicate. Three independent experiments were performed and similar results were obtained.\nQuantification of cell adhesion to fibronectin. […] Cell adhesion was detected by crystal violet staining as previously described (Damiano J S et al. Blood, 1999; 93:1658-1667; Hazlehurst L A et al. Oncogene, 2000; 19:4319-4327).\nBriefly, 8226 myeloma cells were pre-incubated with varying concentrations of either HYD1 or the scrambled HYD1S peptide for 30 minutes prior to allowing cells to attach to FN for two hours. Following two hours of cell adhesion, the amount of cells adherent to FN was measured. […] Twenty-four hours after drug treatment, apoptosis was measured by Annexin V-PE positive events by FACS analysis. […]"}, "8226 cells [2]": {"test_system": "8226 cells", "experiment": "Cell adhesion to HS-5 bone marrow stroma cells (CMFDA fluorescence)", "conditions": "varying concentrations, 30 minutes pre-incubation, two hours adhesion", "method": "(§1) FIGS. 31A and 31B are graphs showing that HYD1 blocks adhesion of 8226 but not H929 cells to the bone marrow stroma cell line HS-5. Varying concentrations of either HYD1, HYD1S or a 1:100 dilution of a β1 integrin functional blocking antibody was added to either (FIG. 31A) CMFDA labeled 8226 cells or (FIG. 31B) CMFDA labeled H929 cells for 30 minutes prior to adding fluorescently labeled cells to either HS-5 or BSA coated wells for two hours. Unadhered cells were gently removed and adherent cells were quantified by total fluorescence. The independent experiments were performed and similar results were obtained.\n(§2) Quantification of cell adhesion to HS-5 bone marrow stroma cells. Adhesion of 8226 or H929 cells to the HS-5 bone marrow stromal cells was performed as previously described (Nefedova Y et al. Leukemia, 2003; 17:1175-1182). Briefly, HS-5 cells were plated at a density of 500,000 cell/ml in a 96 well plate overnight. […] Cells were then counted and placed at a density of one million cells per ml and varying concentrations of peptide were added for 30 minutes prior to addition of 100 μl of cells to either HS-5 or BSA coated plates. Cells were allowed to adhere for two hours and unbound cells were washed with three gentle washes and total fluorescence was detected by a Victor plate reader, at 485 nm excitation and 535 nm emission. […]"}, "H929 cells": {"test_system": "H929 cells", "experiment": "Cell adhesion to HS-5 bone marrow stroma cells (CMFDA fluorescence)", "conditions": "varying concentrations, 30 minutes pre-incubation, two hours adhesion", "method": "as §1, §2"}, "8226 cells [3]": {"test_system": "8226 cells", "experiment": "Detection of apoptosis, annexin V staining and FACS, suspension culture", "method": "FIG. 17 is a graph showing that HYD1 induces apoptosis as a single agent in 8226 and H929 cells cultured in suspension. 8226 and H929 cells were either treated with varying concentrations of HYD1 or vehicle control (equal volume sterile double distilled water) for 24 hours and apoptotic cells were detected by FACS analysis of annexin V positive cells. HYD1 specific apoptosis equals cell death due to peptide minus any apoptosis detected in control cells.\nDetection of Apoptosis. A flow cytometric assay measuring Annexin V/PI staining was used to measure apoptotic cells following 24 hours of peptide exposure as previously described (Damiano J S et al. Blood, 1999; 93:1658-1667). The assay was performed in triplicate and 3 independent experiments were performed. Caspase 3 and 8 activity was measured at 6 and 24 hrs post peptide treatment per manufactures' instructions (BD Biosciences, San Jose, Calif.). The caspase assays were performed in triplicate and repeated twice.\nMyeloma cells were plated at a density of 400,000 cells per ml in a 24 well plate. Cells were treated with the indicated dose of the peptide for 24 hours. Following 24 hrs of peptide exposure, apoptotic cells were detected using Annexin V staining and FACS analysis. Ten thousand events were analyzed by flow cytometry (Becton Dickinson, San Jose, Calif.). Experiments were performed in triplicate and repeated twice. Shown is a representative figure."}, "[4]": {"test_system": "phospho Pyk2 in H929 cells", "experiment": "Phospho-Pyk2 levels in suspension culture (immunoblot)", "conditions": "H929 cells cultured in suspension", "from_the_text": "Based upon the observation that HYD1 increased melphalan induced apoptosis in suspension cultures, whether treatment with HYD1 inhibits phosphorylation of a downstream mediator of β1 integrin signaling (Pyk2) in suspension cultures was investigated."}, "prostate tumor cell": {"test_system": "prostate tumor cell", "experiment": "Random haptotaxis (cell migration) on laminin 322 (laminin 5)", "conditions": "soluble peptide, cells grown on ligand before treatment", "from_the_text": "Defining the minimal region of HYD1 necessary to potentiate drug-induced apoptosis in suspension and adherent cultures is of interest. Below is a study to determine the minimal HYD1 sequence required to block prostate tumor cell migration. Similar studies as those outlined below and using the same peptide sequences will be used to determine the minimal amino acid sequence required for potentiation of drug induced apoptosis.\nThis response to the peptide is independent of disrupting adhesion to laminin 322 (laminin 5) since the cells were grown on a ligand before treatment with the peptide. […] All other alanine-substitution mutants resulted cell migration, i.e., a loss of peptide activity.\nUsing the negative control scrambled peptide, HYDS (SEQ ID NO:44), to indicate 100% cell migration, several truncated peptides including, ikmviswkg (SEQ ID NO:22), kmviswkg (SEQ ID NO:39), and kikmviswk (SEQ ID NO:37) were effective at blocking cell migration by approximately 50%."}},
  "note": "Where no end group is shown, it is not given here. [ ]: non-standard residue; d: D form.",
  "data": [
    {"substance": "kikmviswkg ([dK][dI][dK][dM][dV][dI][dS][dW][dK]G) [HYD1]", "values": [
      {"measurement": "blocking of adhesion of 8226 cells to the extracellular matrix FN", "setting": "8226 cells [1]", "value": "blocks adhesion of 8226 and H929 cells to the extracellular matrix FN in a dose dependent manner"},
      {"measurement": "blocking of 8226 cells binding to HS-5 cells", "setting": "8226 cells [2]", "value": "partially blocked"},
      {"measurement": "blocking of H929 cells binding to HS-5 cells", "setting": "H929 cells", "value": "no effect"},
      {"measurement": "induction of annexin V positive cells", "setting": "8226 cells [3]; suspension culture, single agent, 24 hours", "value": "dose dependent induction of annexin V positive cells"},
      {"measurement": "melphalan-induced apoptosis in cells cultured in suspension", "setting": "8226 cells [3]; suspension, peptide with melphalan", "value": "increased melphalan-induced apoptosis"},
      {"measurement": "phospho Pyk2 levels", "setting": "[4]", "value": "reduces phospho Pyk2 levels"},
      {"measurement": "blocking of random haptotaxis on laminin 322 (laminin 5)", "setting": "prostate tumor cell", "value": "completely blocks random haptotaxis"}
    ]}
  ]
}
